Results: US20230245725A1, “Means and Methods for the Prediction of Amyloid Core Sequences” (VIB VZW, priority 2020, published 2023)

Assays:
[1] = molecular target: T1, Apo-AI (Homo sapiens, UniProt P02647); experiment: Th-T kinetics and endpoint fluorescence analysis of ApoA-I APR variant peptides; format: biochemical; details: triplicate
T1 construct: Endpoint fluorescence analysis; made in house; host or cells: solid phase peptide synthesis (no expression host)
Method: The Th-T kinetics (see FIGS. 12A and 12B) and the endpoint fluorescence analysis (see FIG. 11) were performed in triplicate for the peptides depicted in Table 5.
The Th-T kinetics (see FIGS. 13A and 13B) and the endpoint fluorescence analysis (see FIG. 11) were performed in triplicate for the peptides depicted in Table 6.
(§1) Amyloid aggregation was monitored using fluorescent spectroscopy binding assays. Th-T (Sigma) or pFTAA (Ebba Biotech AB) was added in half-area black 96-well microplates (Corning, USA) at a final concentration of 25 μM and 0.5 μM, respectively. Fluorescence intensity was measured in replicates (n=6) using a PolarStar Optima and a FluoStar Omega plate reader (BMG Labtech, Germany), equipped with an excitation filter at 440 nm and emission filters at 480 nm and 510 nm, respectively.

[2] = Amyloid-forming properties of the peptide screen (overall call from Th-T, pFTAA, TEM); format: physicochemical; details: overall amyloid-forming call
Text: In the interest of improving the current description of the familiar amyloidogenic protein dataset, we selected and synthesised a subset of 96 peptides corresponding to strong aggregation prone regions identified in these proteins by Cordax. Apart of prediction strength, the peptide screen was also selectively constructed to ensure broad sequence variability and a wide distribution on the proteins of the dataset, with a preference for longer entries defined by inadequate previous characterisation. Peptide sequences were cross-checked and filtered to exclude overlapping sequences with previously identified amyloid regions and WALTZ-DB (see Table 2). The remaining selection of 96 peptides were synthesized using standard solid phase synthesis and their amyloid-forming properties were initially examined using Thioflavin-T (Th-T) or pFTAA binding, following rotating incubation for 5 days at room temperature. The binding assays are complementary, as Th-T and pFTAA are opposingly charged molecules, which increases the amyloid identification rate by overcoming cases of dye-specific failure to bind to amyloid surfaces based on charge repulsion. Under these conditions, 66 peptides successfully bind the specific dyes (FIGS. 3a & 3b) by forming fibrils with typical amyloid morphologies and properties that were verified using transmission electron microscopy (FIG. 3c) and Congo red staining for selected cases (FIG. 3d). As these dyes are known to yield false negatives, in particular for short peptides, all dye-negative peptides were further investigated using electron microscopy. During this scan, we recovered 19 additional sequences that were capable of forming sparse amyloid-like fibrils with shorter lengths (see FIG. 8). […]
(§2) Peptides derived from the Cordax validation set were synthesized using an Intavis Multipep RSi solid phase peptide synthesis robot. Peptide purity (>90%) was evaluated using RP-HPLC purification protocols and peptides were stored as ether precipitates (−20° C.). Peptide stocks were initially treated with 1,1,1,3,3,3-hexafluoro-isopropanol (HFIP) (Merck), then dissolved in traces of dimethyl sulfoxide (DMSO) (Merck) (<5%), filtered through 0.2 μm filters and finally in milli-Q water to reach a final concentration of 200 μM or up to 1 mM for dye-negative peptides. Dithiothreitol (DTT) (1 mM) was included in solutions of peptides spanning cysteine or methionine residues. All peptides were incubated at room temperature for a period of 5 days on a rotating wheel.
as §1
(§3) Peptide solutions were incubated for 5 days at room temperature in order to form mature amyloid-like fibrils. Suspensions (5 μL) of each peptide solution were added on 400-mesh carbon-coated copper grids (Agar Scientific Ltd., England), following a glow-discharging step of 30 s to improve sample adsorption. Grids were washed with milli-Q water and negatively stained using uranyl acetate (2% w/v in milli-Q water). Grids were examined with a JEM-1400 120 kV transmission electron microscope (JEOL, Japan), operated at […].

[3] = Transmission electron microscopy of peptide fibrils; format: physicochemical; details: amyloid-like fibrils after 5 days at room temperature
Text: (§4) In the interest of improving the current description of the familiar amyloidogenic protein dataset, we selected and synthesised a subset of 96 peptides corresponding to strong aggregation prone regions identified in these proteins by Cordax. Apart of prediction strength, the peptide screen was also selectively constructed to ensure broad sequence variability and a wide distribution on the proteins of the dataset, with a preference for longer entries defined by inadequate previous characterisation. Peptide sequences were cross-checked and filtered to exclude overlapping sequences with previously identified amyloid regions and WALTZ-DB (see Table 2). The remaining selection of 96 peptides were synthesized using standard solid phase synthesis and their amyloid-forming properties were initially examined using Thioflavin-T (Th-T) or pFTAA binding, following rotating incubation for 5 days at room temperature. The binding assays are complementary, as Th-T and pFTAA are opposingly charged molecules, which increases the amyloid identification rate by overcoming cases of dye-specific failure to bind to amyloid surfaces based on charge repulsion. Under these conditions, 66 peptides successfully bind the specific dyes (FIGS. 3a & 3b) by forming fibrils with typical amyloid morphologies and properties that were verified using transmission electron microscopy (FIG. 3c) and Congo red staining for selected cases (FIG. 3d). As these dyes are known to yield false negatives, in particular for short peptides, all dye-negative peptides were further investigated using electron microscopy. During this scan, we recovered 19 additional sequences that were capable of forming sparse amyloid-like fibrils with shorter lengths (see FIG. 8).
as §3

[4] = pFTAA binding assay of synthetic peptides; format: physicochemical; details: 200 μM peptide, rotation 5 days, room temperature; pFTAA 0.5 μM
Text: as §4, §2, §1

[5] = Thioflavin-T binding assay of synthetic peptides; format: physicochemical; details: 200 μM peptide, rotation 5 days, room temperature; Th-T 25 μM
Text: as §4, §2, §1

Substance | capping peptide: prevent the aggregation of Apo-AI [1] | Amyloid [2] | TEM [3] | pFTAA Binding [4] | Th-T Binding [5] | induce the aggregation of Apo-AI [1]
LWTVYV (Capping peptide) [SEQ ID NO: 175, candidate capping peptide variant of ApoA-I APR] | most performant capping peptides |  |  |  |  | 
LYTVYV (Capping peptide) [SEQ ID NO: 176, candidate capping peptide variant of ApoA-I APR] | most performant capping peptides |  |  |  |  | 
NFSIRY |  | ● | ● | ● | ● | 
ASLTIL |  | ● | ● | ● | ● | 
LLTVYV (Aggregation inducer) [SEQ ID NO: 178, candidate aggregation inducing variant of ApoA-I APR] |  |  |  |  |  | most performant peptides which can induce the aggregation of Apo-AI
LAIVYV (Aggregation inducer) [SEQ ID NO: 182, candidate aggregation inducing variant of ApoA-I APR] |  |  |  |  |  | most performant peptides which can induce the aggregation of Apo-AI
